The values below come from patent US20110172296A1, “MODULATION OF TRANSFORMING GROWTH FACTOR-BETA 1 EXPRESSION” (priority 2010, published 2011).

Where “and” joins values, the source holds several entries; their conditions need not be identical. Identical values can stand only once. In the oligonucleotide strings, read from the 5' end, every base follows the letter of its sugar. An asterisk marks phosphorothioate; unmarked linkages are phosphodiester. Other units and linkages are bracketed, terminal groups are in braces. A string of capitals states the bases alone. e = 2'-O-(2-methoxyethyl) (MOE); [5mC] = 5-methylcytosine; d = 2'-deoxy (DNA)

The data set deals with human TGF-beta1 mRNA. Kind of data set: Antisense inhibition of human TGF-beta1 mRNA in HuVEC cells, single 10 nM dose, Lipofectamine 2000 (Example 2). It counts as cell-based. Particulars: for % inhibition: 10 nM oligonucleotide, HuVEC, relative to untreated control cells; for inhibition of a TGF-beta1 mRNA: threshold lists of Oligo IDs, 10 nM. Here is the method: Antisense oligonucleotides targeted to a TGF-beta1 nucleic acid were tested for their effects on TGF-beta1 mRNA in vitro. Cultured HuVEC cells at a density of 5,000 cells per well were transfected using Lipofectamine™ 2000 reagent with 10 nM antisense oligonucleotide for 4 hours. After a recovery period of approximately 24 hours, RNA was isolated from the cells and TGF-beta1 mRNA levels were measured by quantitative real-time PCR. TGF-beta1 mRNA levels were adjusted according to total RNA content, as measured by RIBOGREEN®. Results are presented as percent inhibition of TGF-beta1, relative to untreated control cells.
The chimeric antisense oligonucleotides in Tables 1 and 2 were designed as 2-13-5 MOE gapmers. Antisense molecules with this motif targeting TGF-beta1 are unique, and represent a novel chemical structure for an ASO directed against this target. The gapmers are 20 nucleotides in length, wherein the central gap segments are comprised of thirteen 2′-deoxynucleotides and are flanked on the 5′ side by wings comprising two nucleotides each and on the 3′ side by wings comprising five nucleotides each. Each nucleotide in the 5′ wing segment and each nucleotide in the 3′ wing segment has a 2′-MOE modification. The internucleoside linkages throughout each gapmer are phosphorothioate (P═S) linkages. All cytosine residues throughout each gapmer are 5-methylcytosines. “Target start site” indicates the 5′-most nucleotide to which the gapmer is targeted. “Target stop site” indicates the 3′-most nucleotide to which the gapmer is targeted. Each gapmer listed in Table 1 is targeted to SEQ ID NO: 1 (GENBANK Accession No. NM_000660.3). Each gapmer listed in Table 2 is targeted to SEQ ID NO: 2 (GENBANK Accession No. NT 011109.15 truncated from 14103000 to […]).

The mark [1] stands for this setting: gapmers targeted to SEQ ID NO: 2.
[2] abbreviates: gapmers targeted to SEQ ID NO: 1.

In general, % inhibition refers to the drop in the measured response relative to a control, in per cent. A higher % inhibition goes with strong suppression. In the case of “414050 (antisense eT*eT*d[5mC]*d[5mC]*d[5mC]*d[5mC]*dA*dA*dG*dG*d[5mC]*dT*d[5mC]*dT*dG*eA*eA*e[5mC]*e[5mC]*eA) [compound 414050]”, the “inhibition of a TGF-beta1 mRNA” value was 60% and 65% and 70% and 75% and 80%. Moreover, under setting [1], the “% inhibition” value is given as 82%.

Regarding “413997 (antisense eA*eA*dA*dA*dG*dT*d[5mC]*dT*dT*dT*dG*d[5mC]*dG*dG*dG*eA*eG*eG*e[5mC]*e[5mC]) [compound 413997]”, the “% inhibition” value under setting [2] turned out to be 41%.

As for “414097 (antisense eG*eA*dA*dT*d[5mC]*d[5mC]*dA*dA*d[5mC]*dA*dT*dT*dT*d[5mC]*dA*eG*e[5mC]*eT*eT*eT) [compound 414097]”, the “inhibition of a TGF-beta1 mRNA” value is 60% and 65% and 70%. For the same substance, the “% inhibition” value under setting [1] is recorded as 74%.

With “414029 (antisense eG*eA*dG*d[5mC]*dT*d[5mC]*dT*dG*dA*dT*dG*dT*dG*dT*dT*eG*eA*eA*eG*eA) [compound 414029]”, the “inhibition of a TGF-beta1 mRNA” value was 60% and 65% and 70%. The “% inhibition” value under setting [2] was 73%.

Regarding “414012 (antisense eG*eG*d[5mC]*dG*d[5mC]*dG*dA*dT*d[5mC]*dT*dG*dG*dT*dA*d[5mC]*e[5mC]*eA*eG*eA*eA) [compound 414012]”, the “inhibition of a TGF-beta1 mRNA” value is 60% and 65% and 70% and 75% and 80% and 85%. Further, under setting [2], the “% inhibition” value came out at 87%.

As to “414010 (antisense e[5mC]*eG*dA*dT*d[5mC]*dT*dG*dG*dT*dA*d[5mC]*d[5mC]*dA*dG*dA*eA*eG*eG*eT*eG) [compound 414010]”, the “inhibition of a TGF-beta1 mRNA” value was 60% and 65% and 70% and 75% and 80% and 85%. Under setting [2], the “% inhibition” value worked out at 88%.

For “413996 (antisense eA*eA*dG*dT*d[5mC]*dT*dT*dT*dG*d[5mC]*dG*dG*dG*dA*dG*eG*e[5mC]*e[5mC]*eG*eG) [compound 413996]”, the “% inhibition” value under setting [2] worked out at 51%.

Turning to “413994 (antisense e[5mC]*eG*dT*d[5mC]*d[5mC]*d[5mC]*d[5mC]*dG*dG*d[5mC]*dG*dG*d[5mC]*dA*dA*eA*eG*eG*eG*eA) [compound 413994]”, the “inhibition of a TGF-beta1 mRNA” value was 60% and 65%. In addition, the “% inhibition” value under setting [2] was 67%.

For the substance “414039 (antisense eG*e[5mC]*dA*d[5mC]*dG*dG*dG*dT*dG*dT*d[5mC]*d[5mC]*dT*dT*dA*eA*eA*eT*eA*e[5mC]) [compound 414039]”, the “inhibition of a TGF-beta1 mRNA” value was 60% and 65% and 70% and 75% and 80%. For the same substance, the “% inhibition” value under setting [2] is 83%.

As to “413968 (antisense eG*eA*dG*dA*dT*dG*dG*d[5mC]*d[5mC]*d[5mC]*dA*dG*dG*dG*d[5mC]*eG*e[5mC]*eG*eA*eA) [compound 413968]”, the “% inhibition” value under setting [2] is on record as 55%.

For “414093 (antisense eA*eA*d[5mC]*dA*dT*dT*d[5mC]*d[5mC]*dA*dA*d[5mC]*dA*d[5mC]*dT*dG*eA*eG*eT*eT*e[5mC]) [compound 414093]”, the “inhibition of a TGF-beta1 mRNA” value is 60% and 65%. The “% inhibition” value under setting [1] was determined as 68%.

Take “414096 (antisense e[5mC]*e[5mC]*dA*dA*d[5mC]*d[5mC]*dT*dT*dT*dG*dA*dG*dG*dA*dT*e[5mC]*eT*eT*eG*eG) [compound 414096]”: the “inhibition of a TGF-beta1 mRNA” value was 60% and 65% and 70%. Moreover, the “% inhibition” value under setting [1] stood at 74%.

In the case of “413992 (antisense e[5mC]*e[5mC]*d[5mC]*dG*dG*d[5mC]*dG*dG*d[5mC]*dA*dA*dA*dG*dG*dG*eA*eG*eG*e[5mC]*eG) [compound 413992]”, the “inhibition of a TGF-beta1 mRNA” value is 60%. Further, under setting [2], the “% inhibition” value came to 60%.

In the case of “414014 (antisense eG*eA*dT*dG*dG*dG*d[5mC]*dG*d[5mC]*dG*dA*dT*d[5mC]*dT*dG*eG*eT*eA*e[5mC]*e[5mC]) [compound 414014]”, the “inhibition of a TGF-beta1 mRNA” value was 60% and 65% and 70% and 75% and 80% and 85%. Also, the “% inhibition” value under setting [2] is recorded as 89%.

Regarding “414067 (antisense eT*e[5mC]*d[5mC]*dT*dA*dG*dG*dA*dT*dG*d[5mC]*dA*dA*dA*dG*eA*eG*eT*e[5mC]*eT) [compound 414067]”, the “inhibition of a TGF-beta1 mRNA” value is 60% and 65% and 70%. In addition, the “% inhibition” value under setting [1] came to 71%.

Consider “413999 (antisense eG*eG*d[5mC]*dT*d[5mC]*dA*dG*dG*dA*dG*dA*d[5mC]*dA*dG*dG*e[5mC]*e[5mC]*eG*eG*eG) [compound 413999]”, for which the “inhibition of a TGF-beta1 mRNA” value was 60% and 65% and 70%. For the same substance, the “% inhibition” value under setting [2] worked out at 72%.

Regarding “414000 (antisense eA*eA*dG*dG*dG*dT*d[5mC]*dT*dA*dG*dG*dA*dT*dG*d[5mC]*eG*e[5mC]*eG*eG*eG) [compound 414000]”, the “inhibition of a TGF-beta1 mRNA” value was 60% and 65% and 70% and 75%. For the same substance, the “% inhibition” value under setting [2] came out at 75%.

Regarding “413972 (antisense e[5mC]*eT*d[5mC]*dG*dT*d[5mC]*d[5mC]*d[5mC]*dT*d[5mC]*d[5mC]*dT*d[5mC]*d[5mC]*d[5mC]*eG*e[5mC]*eT*e[5mC]*e[5mC]) [compound 413972]”, the “inhibition of a TGF-beta1 mRNA” value is on record as 60%. Further, the “% inhibition” value under setting [2] was 61%.

On to “414086 (antisense eT*eT*dG*dA*dA*dT*dT*d[5mC]*d[5mC]*dA*dA*d[5mC]*dA*dA*dT*e[5mC]*eA*e[5mC]*eA*eG) [compound 414086]”, for which the “% inhibition” value under setting [1] was 54%.

In the case of “414104 (antisense eA*eG*dG*dA*dT*dT*d[5mC]*dA*dA*dG*dT*dA*dA*dG*dG*eT*e[5mC]*eT*eA*e[5mC]) [compound 414104]”, the “inhibition of a TGF-beta1 mRNA” value was 60%. Besides, the “% inhibition” value under setting [1] came to 61%.

For “413993 (antisense eT*e[5mC]*d[5mC]*d[5mC]*d[5mC]*dG*dG*d[5mC]*dG*dG*d[5mC]*dA*dA*dA*dG*eG*eG*eA*eG*eG) [compound 413993]”, the “% inhibition” value under setting [2] worked out at 52%.

For “414090 (antisense eG*eA*dT*dT*d[5mC]*d[5mC]*dA*dA*dT*dG*dT*dT*dT*d[5mC]*dA*eG*e[5mC]*eT*eT*eT) [compound 414090]”, the “inhibition of a TGF-beta1 mRNA” value is 60% and 65% and 70% and 75% and 80%. Further, the “% inhibition” value under setting [1] came to 80%.

Take “414023 (antisense eT*e[5mC]*dG*dG*dG*d[5mC]*dT*d[5mC]*d[5mC]*dG*dG*dT*dT*d[5mC]*dT*eG*e[5mC]*eA*e[5mC]*eT) [compound 414023]”: the “inhibition of a TGF-beta1 mRNA” value was 60% and 65% and 70% and 75%. The “% inhibition” value under setting [2] stood at 78%.

Regarding “414005 (antisense e[5mC]*e[5mC]*dA*dG*dA*dA*dG*dG*dT*dG*dG*dG*dT*dG*dG*eT*e[5mC]*eT*eT*eG) [compound 414005]”, the “inhibition of a TGF-beta1 mRNA” value is 60% and 65% and 70% and 75%. Moreover, under setting [2], the “% inhibition” value is reported as 77%.

In the case of “414049 (antisense e[5mC]*eT*dG*dA*dG*dT*dG*dG*dG*dA*dG*d[5mC]*d[5mC]*d[5mC]*d[5mC]*eG*e[5mC]*e[5mC]*e[5mC]*eG) [compound 414049]”, the “% inhibition” value under setting [1] amounted to 53%.

Consider “414032 (antisense eG*eG*dG*dT*dT*dA*dT*dG*d[5mC]*dT*dG*dG*dT*dT*dG*eT*eA*e[5mC]*eA*eG) [compound 414032]”, for which the “inhibition of a TGF-beta1 mRNA” value was 60% and 65% and 70% and 75% and 80%. Besides, under setting [2], the “% inhibition” value is 80%.

As for “414031 (antisense eA*eT*dG*dT*d[5mC]*d[5mC]*dA*d[5mC]*dT*dT*dG*d[5mC]*dA*dG*dT*eG*eT*eG*eT*eT) [compound 414031]”, the “inhibition of a TGF-beta1 mRNA” value is 60% and 65%. The “% inhibition” value under setting [2] amounted to 66%.
